The target of series [1] is T1, LXRβ ligand-binding domain (Homo sapiens, UniProt P55055, DUP175-175).
T1 construct: amino acids 156-461; NP009052; made in house; host or cells: E. coli
T1 sequence (P55055 with tags, fused parts or gaps DUP175-175 limits assumed): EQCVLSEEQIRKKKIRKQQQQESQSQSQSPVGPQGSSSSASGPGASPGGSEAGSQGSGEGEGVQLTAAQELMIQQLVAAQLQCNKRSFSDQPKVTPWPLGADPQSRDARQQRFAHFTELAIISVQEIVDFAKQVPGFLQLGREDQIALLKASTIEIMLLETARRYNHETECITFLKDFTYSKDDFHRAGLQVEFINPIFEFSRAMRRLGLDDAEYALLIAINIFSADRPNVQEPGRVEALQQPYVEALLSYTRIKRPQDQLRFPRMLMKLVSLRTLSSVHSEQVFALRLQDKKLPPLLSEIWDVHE
Nature of the series: TR-FRETβ activity assay (NCoA3 coactivator peptide recruitment). The series is classed as biochemical. Conditions: TR-FRET, 1 μM 24(S)-25-epoxycholesterol prestimulation; read-out: FRETβ (EC50 range). The essentials:
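GST-tagged human LXRβ LBD (aa 156-461, E. coli) at 76 nM with 400 nM biotinylated NCoA3 peptide in Tris/HCl pH 6.8, 240 mM KCl, BSA, 0.002% Triton-X-100, plus 1 μM 24(S)-25-epoxycholesterol as prestimulating agonist. Compounds at 50 μM down to 0.002 μM, 1 h at 4 °C. Coactivator recruitment by TR-FRET (Tb cryptate/XL665, 615/665 nm), triplicates.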
On the technique in general: Time-resolved FRET reads energy transfer from a long-lived donor to a nearby acceptor.

The target in series [2] is T2, full length (FL) LXRβ (Homo sapiens, UniProt P55055, DUP175-175).
T2 construct: the full length (FL) proteins of LXRα (amino acids 1-447); NP005684; NP009052; expressed in transfected cells; host or cells: HEK293
T2 sequence (P55055 with tags, fused parts or gaps DUP175-175): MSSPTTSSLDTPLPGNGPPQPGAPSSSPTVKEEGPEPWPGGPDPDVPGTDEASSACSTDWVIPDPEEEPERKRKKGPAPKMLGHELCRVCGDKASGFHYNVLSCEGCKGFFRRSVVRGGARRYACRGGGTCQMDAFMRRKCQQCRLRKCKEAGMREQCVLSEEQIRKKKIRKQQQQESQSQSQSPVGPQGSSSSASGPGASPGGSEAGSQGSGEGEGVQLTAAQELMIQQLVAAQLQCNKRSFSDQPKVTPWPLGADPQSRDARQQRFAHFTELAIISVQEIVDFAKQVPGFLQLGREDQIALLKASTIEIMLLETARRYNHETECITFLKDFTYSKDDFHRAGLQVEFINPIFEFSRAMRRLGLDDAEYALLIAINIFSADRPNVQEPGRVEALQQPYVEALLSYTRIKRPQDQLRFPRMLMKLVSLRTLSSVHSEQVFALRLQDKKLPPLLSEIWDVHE
As to the kind of experiment: LXR Gal4 reporter transient transfection assay (FL-M2H Gal4β). The series is classed as cell-based. The following applies: HEK293 cells, full length LXRβ; read-out: FL-M2H Gal4β (EC50 range). Summed up: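 Two-hybrid assay pairing LXR constructs (FL aa 1-447/1-461 or LBD aa 155-447/156-461) with coactivator SRC1 or corepressor NCoR in HEK293. Sulfonyl acetic acid stocks contained trifluoroacetic acid. Compounds: 16 h; read-out dual luciferase.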

Series [3] in a line: Short term HFD mouse model: plasma and liver exposure. It counts as in vivo, mice (C57BL/6J). The following applies: HFD mice, 4 h after last dose. As for the experimental part: Short Term HFD Mouse Model:
The in vivo transcriptional regulation of several LXR target genes by LXR modulators was assessed in mice.
For this, C57BL/6J were purchased from Elevage Janvier (Rennes, France) at the age of 8 weeks. After an acclimation period of two weeks, animals were preferred on a high fat diet (HFD) (Ssniff Spezialdiäten GmbH, Germany, Surwit EF D12330 mod, Cat. No. E15771-34), with 60 kcal % from fat plus 1% (w/w) extra cholesterol (Sigma-Aldrich, St. Louis, Mo.) for 5 days. Animals were maintained on this diet during treatment with LXR modulators. The test compounds were formulated in 0.5% hydroxypropylmethylcellulose (HPMC) and administered in three doses (from 1.5 to 20 mg/kg each) by oral gavage according to the following schedule: on day one, animals received treatment in the morning and the evening (ca. 17:00), on day two animals received the final treatment in the morning after a 4 h fast and were sacrificed 4 h thereafter. Animal work was conducted according to the national guidelines for animal care in Germany.
Upon termination, liver was collected, dipped in ice cold PBS for 30 seconds and cut into appropriate pieces. Pieces were snap frozen in liquid nitrogen and stored at −80° C. For the clinical chemistry analysis from plasma, alanine aminotransferase (ALT, IU/mL), cholesterol (CHOL, mg/dL) and triglycerides (TG, mg/dL) were determined using a fully-automated bench top analyzer (Respons®910, DiaSys Greiner GmbH, Flacht, Germany) with system kits provided by the manufacturer.

For series [4], the target named is T3, ligand-binding domain (LBD) of LXRβ (Homo sapiens, UniProt P55055, DUP175-175).
T3 construct: LXRβ (amino acids 156-461); expressed in transfected cells; host or cells: HEK293
T3 sequence (P55055 with tags, fused parts or gaps DUP175-175 limits assumed): T1 sequence (P55055 with tags, fused parts or gaps DUP175-175 limits assumed)
Nature of the series: LXR Gal4 reporter transient transfection assay (LBD-M2H Gal4β). It counts as cell-based. Conditions: HEK293 cells, LXRβ LBD; read-out: LBD-M2H Gal4β (EC50 range). On the procedure: The tested compounds were usually dissolved, tested and stored as 20 mM stock solutions in DMSO. Since sulfonyl acetic acid derivatives tend to decarboxylate under these conditions, these stock solutions were prepared, tested and stored as 20 mM DMSO stock solutions containing 100 mM trifluoroacetic Acid (5 equivalents). Sulfonyl acetic acid derivatives are shelf stable as solid at rt for long time as reported by Griesbrecht et al. (Synlett 2010:374) or Faucher et al. (J. Med. Chem. 2004; 47:18).
LXR Gal4 Reporter Transient Transfection Assays
LXRα and LXRβ activity status was determined via detection of interaction with coactivator and corepressor proteins in mammalian two-hybrid experiments (M2H). For this, via transient transfection the full length (FL) proteins of LXRα (amino acids 1-447; NP005684; SEQ ID NO:1) or LXRβ-(amino acids 1-461; NP009052; SEQ ID NO:2) or the ligand-binding domains (LBD) of LXRα (amino acids 155-447 SEQ ID NO:3) or LXRβ (amino acids 156-461; SEQ ID NO:4) were expressed from pCMV-AD (Stratagene) as fusions to the transcriptional activation domain of NFkB. As cofactors, domains of either the steroid receptor coactivator 1 (SRC1; amino acids 552-887; SEQ ID NO:5) or of the corepressor NCoR (amino acids 1906-2312; NP006302; SEQ ID NO:6) were expressed as fusions to the DNA binding domain of the yeast transcription factor GAL4 (from pCMV-BD; Stratagene). Interaction was monitored via activation of a coexpressed Firefly Luciferase Reporter gene under control of a promoter containing repetitive GAL4 response elements (vector pFRLuc; Stratagene). Transfection efficiency was controlled via cotransfection of constitutively active pRL-CMV Renila reniformis luciferase reporter (Promega). HEK293 cells were grown in minimum essential medium (MEM) with 2 mM L-glutamine and Earle's balanced salt solution supplemented with 8.3% fetal bovine serum, 0.1 mM non-essential amino acids, 1 mM sodium pyruvate, at 37° C. in 5% CO2. 3.5×10^4 cells/well were plated in 96-well cell culture plates in growth medium supplemented with 8.3% fetal bovine serum for 16-20 h to ˜90% confluency. For transfection, medium was taken off and LXR and cofactor expressing plasmids as well as the reporter plasmids are added in 30 μL OPTIMEM/well including polyethylene-imine (PEI) as vehicle. Typical amounts of plasmids transfected/well: pCMV-AD-LXR (5 ng), pCMV-BD-cofactor (5 ng), pFR-Luc (100 ng), pRL-CMV (0.5 ng). Compound stocks were prepared in DMSO, prediluted in MEM to a total volume of 120 μL, and added 4 h after addition of the transfection mixture (final vehicle concentration not exceeding 0.2%). Cells were incubated for additional 16 h, lysed for 10 min in 1× Passive Lysis Buffer (Promega) and Firefly and Renilla luciferase activities were measured sequentially in the same cell extract using buffers containing D-luciferine and coelenterazine, respectively. Measurements of luminescence were done in a BMG-luminometer.

Molecules are shown by their SMILES. pEC50: −log10 of the molar value. Where only a bound is given, the exact number is not on record here.

For orientation: pEC50 means the negative decadic logarithm of the EC50, by convention in mol/L. For `N#Cc1cccc(C#N)c1-c1c(-c2cccc([C@H]3CC[C@H](C(=O)O)CC3)c2)n(S(=O)(=O)c2ccc(C(F)F)cc2)c2ccc(F)cc12` [11/62], the pEC50 in series [1] is 6.00 to 7.00. Besides, the pEC50 in series [2] was greater than 7.00. In addition, in series [3] (three oral doses of 10 mg/kg), the “liver exposure 4 h” value is given as “C (1 μM to ≤10 μM)”, the “liver/plasma ratio 4 h” value was “B (5 to ≤30)” and the “plasma exposure 4 h” value is “C (C: 100 nM to <300 nM)”.

For `O=S(=O)(c1ccc(Cl)cc1)n1c(-c2cccs2)c(-c2ccsc2Cl)c2ccccc21` [Example 20, 1-((4-Chlorophenyl)sulfonyl)-3-(2-chlorothiophen-3-yl)-2-(thiophen-2-yl)-1H-indole], the pEC50 in series [1] was 6.00 to 7.00; in series [4] it was greater than 7.00.

With `COc1ccc(S(=O)(=O)n2c(-c3cccs3)c(-c3ccsc3C#N)c3ccccc32)cc1` [20/14], the pEC50 in series [1] was 6.00 to 7.00; in series [4] it was greater than 7.00.

Regarding `COc1ccc(S(=O)(=O)n2c(-c3ccccc3)c(-c3cc4ccccc4nc3C#N)c3ccccc32)cc1` [20/17], the pEC50 in series [4] was 6.00 to 7.00.

For `CS(=O)(=O)NC(=O)c1ccc(-c2cccc(-c3c(-c4c(C#N)cccc4C#N)c4cc(F)ccc4n3S(=O)(=O)c3ccc(C(F)F)cc3)c2)c(Cl)c1` [32/5], the pEC50 in series [1] is greater than 7.00. The pEC50 in series [2] was greater than 7.00. Further, in series [3] (three oral doses of 10 mg/kg), the “liver exposure 4 h” value is “B (300 nM to ≤1 μM)”, the “liver/plasma ratio 4 h” value is listed as “B (5 to ≤30)” and the “plasma exposure 4 h” value is listed as “D (D: <100 nM)”.

As to `COc1ccc(S(=O)(=O)n2c(-c3ccc(CCC(N)=O)cc3)c(-c3ccsc3C#N)c3ccccc32)cc1` [Example 28, 3-(4-(3-(2-Cyanothiophen-3-yl)-1-((4-methoxyphenyl)sulfonyl)-1H-indol-2-yl)phenyl)propan-amide], the pEC50 in series [1] was 5.00 to 6.00; in series [4], 6.00 to 7.00.

For `N#Cc1sccc1-c1c(-c2cccs2)n(S(=O)(=O)c2ccc(Cl)cc2)c2ccc(O)cc12` [Example 13, 3-(1-((4-Chlorophenyl)sulfonyl)-5-hydroxy-2-(thiophen-2-yl)-1t-indol-3-yl)thiophene-2-carbonitrile], the pEC50 in series [1] was 6.00 to 7.00; in series [4], greater than 7.00.

For `Cc1ccc(S(=O)(=O)n2c(-c3cccc(C4CC4C(=O)O)c3)c(-c3ccsc3C#N)c3ccccc32)cc1` (racemic) [Example 30, rac-(1R,2R)-2-(3-(3-(2-Cyanothiophen-3-yl)-1-tosyl-1H-indol-2-yl)phenyl)cyclopropane-1-carboxylic Acid], the pEC50 is 6.00 to 7.00 in series [1] and greater than 7.00 in series [4].

Consider `N#Cc1sccc1-c1c(-c2cccs2)n(S(=O)(=O)c2ccc(Cl)cc2)c2ccc(OCC(=O)O)cc12` [Example 15, 2-((1-((4-Chlorophenyl)sulfonyl)-3-(2-cyanothiophen-3-yl)-2-(thiophen-2-yl)-1H-indol-5-yl)oxy)acetic Acid], for which the pEC50 in series [1] and in series [4] was less than 5.00 throughout.

Turning to `Cc1ccc(S(=O)(=O)n2c(-c3cccc(-c4cccc(C(=O)NS(C)(=O)=O)c4)c3)c(-c3ccsc3C#N)c3ccccc32)cc1` [Example 32, 3′-(3-(2-Cyanothiophen-3-yl)-1-tosyl-1H-indol-2-yl)-N-(methylsulfonyl)-[1,1′-biphenyl]-3-carboxamide], the pEC50 in series [1] and in series [4] was 6.00 to 7.00 in each case.

For `N#Cc1sccc1-c1c(-c2cccc(-c3ccc(C(=O)O)cc3Cl)c2)n(S(=O)(=O)c2ccc(C(F)F)cc2)c2ccc(F)cc12` [11/17], the pEC50 in series [1] was greater than 7.00. Also, in series [2], the pEC50 was greater than 7.00. Moreover, in series [3] (three oral doses of 20 mg/kg), the “liver exposure 4 h” value is “D (>10 μM)”, the “liver/plasma ratio 4 h” value is recorded as “C (30 to ≤100)” and the “plasma exposure 4 h” value is given as “C (C: 100 nM to <300 nM)”.

With `COC(=O)CCc1ccc(S(=O)(=O)n2c(-c3cccs3)c(-c3ccsc3C#N)c3ccccc32)cc1` [20/15], the pEC50 in series [1] and in series [4] was 6.00 to 7.00 each time.

Turning to `N#Cc1sccc1-c1c(-c2cccs2)n(S(=O)(=O)c2ccc(Cl)cc2)c2ccc(C(=O)O)cc12` [Example 23, 1-((4-Chlorophenyl)sulfonyl)-3-(2-cyanothiophen-3-yl)-2-(thiophen-2-yl)-1H-indole-5-carboxylic Acid], the pEC50 in series [1] is less than 5.00; in series [4], 6.00 to 7.00.

As to `N#Cc1sccc1-c1c(-c2cccs2)n(S(=O)(=O)c2ccc(CCC(=O)O)cc2)c2ccccc12` [23/1], the negative-log EC50 (pEC50) was 5.00 to 6.00 in series [1] and greater than 7.00 in series [4].

Take `Cc1cccc(S(=O)(=O)n2c(-c3cccc(N4CC(C(=O)O)C4)c3)c(-c3ccsc3C#N)c3cc(F)ccc32)c1` [3/8]: the pEC50 was 5.00 to 6.00 in series [1] and greater than 7.00 in series [4].
